One assay has as its target T1, ChoKα protein (Homo sapiens, UniProt P35790).
T1 construct: made in house
The assay is described as follows: Binding affinity by surface plasmon resonance (SensiQ Pioneer, FastStep). As to the method:
KD may be measured using surface plasmon resonance (BIAcore®) technology, see, e.g., Panayotou et al, Mol. Cell. […] ChoKα protein was immobilized by standard amine coupling methods on a COOH5 sensor chip installed in a SensiQ Pioneer system. Sensograms were measured using the FastStep™ screen method with an upper concentration of 500 nM. Kinetics and affinity were obtained from fits using a 1:1 binding model.

Assay [1] has as its target T2, truncated form of human Choline kinase α1 that includes residues 75-457 (Homo sapiens, UniProt P35790).
T2 construct: made in house
The assay is described as follows: Kinase Assay, coupled (ATP regeneration) LDH/PK assay, NADH absorbance. In kind it is biochemical. Here is the method:
Absorbance of NADH (340 nm) was measured over 30 min using a SpectraMax M5 (Molecular Devices). Initial reaction velocity (ΔA340/Δt) was calculated and plotted as a function of inhibitor concentration in a 2-fold dilution series. IC50 values were obtained by fitting the relative velocities to a dose-response model.

The subject of the next assay is cancer cell lines. In words: Cellular Growth Inhibition Assay (CyQuant Cell Proliferation Assay Kit). In kind it is cell-based. As to the method:
Cellular Growth Inhibition AssayVehicle or compound treated cells were assessed for cell growth after 72 hours of treatment using the CyQuant® Cell Proliferation Assay Kit (Life Technologies, Grand Island, N.Y.). […] Data are shown as mean (±SD) from ≧2 separate experiments.

Assay [2] concerns phosphocholine levels in MDA-MB-415 cells. The assay is described as follows: Phosphocholine Assay (1H-NMR) in MDA-MB-415 cells. The following applies: Homo sapiens, 24 hours of treatment, read-out: IC50 of pCh. The assay is classed as cell-based. Here is the method:
(§1) 5×10^6 cells of each line were grown in the presence of increasing concentration of the test compound or vehicle (DMSO) for 24 hours, then counted and viability checked by Trypan Blue Exclusion protocol. 5×10^6 viable cells were washed twice in ice cold D-PBS, then solubilized by vortexing for 30 seconds in 6 mL ice cold 100% methanol. 6 mL of chloroform and 6 mL of water were added and the mixture vortexed again. After centrifugation for 10 minutes @ 5,220 rpms, 10 mL of the aqueous phase is removed and lyophilized. The samples were analyzed by ^1H-NMR to determine phosphocholine levels.
Dose dependent inhibition of phosphocholine levels in MDA-MB-415 cells by the compound provided in Example 55 was determined by ^1H-NMR analysis after 24 hours of treatment with increasing concentrations consisting of 0.25 μM, 0.50 μM, 1.0 μM, 2.0 μM, 4.0 μM, 8.0 μM and 16 μM.

For assay [3], the system named is phosphocholine levels in MDA-MB-468 cells. In words: Phosphocholine Assay (1H-NMR) in MDA-MB-468 cells. The assay is classed as cell-based. Conditions: Homo sapiens, 24 hours of treatment, read-out: IC50 of pCh. As to the method: as §1
Similarly, dose dependent inhibition of phosphocholine levels in MDA-MB-468 cells by the compound provided in Example 45 was determined by ^1H-NMR analysis after 24 hours of treatment with increasing concentrations consisting of 0.1 μM, 1.0 μM, 10 μM, 20 μM, and 80 μM. By this method, the IC50 of pCh was determined to be 3 μM of the compound provided in Example 45.

The mark [4] stands for this setting: SPR, 1:1 binding model, upper concentration 500 nM, read-out: Kd.
The mark [5] stands for this setting: Examples not designated with an asterisk, footnote prints version 1 of the Kinase Assay, read-out: IC50.
[6] abbreviates: 72 hours of treatment, cell line not named, read-out: GI50.

Molecules are shown by their SMILES. pIC50, pKd: −log10 of the molar value. Where two headings read alike, the source gives them in different places.

T1 sequence (P35790 75-457): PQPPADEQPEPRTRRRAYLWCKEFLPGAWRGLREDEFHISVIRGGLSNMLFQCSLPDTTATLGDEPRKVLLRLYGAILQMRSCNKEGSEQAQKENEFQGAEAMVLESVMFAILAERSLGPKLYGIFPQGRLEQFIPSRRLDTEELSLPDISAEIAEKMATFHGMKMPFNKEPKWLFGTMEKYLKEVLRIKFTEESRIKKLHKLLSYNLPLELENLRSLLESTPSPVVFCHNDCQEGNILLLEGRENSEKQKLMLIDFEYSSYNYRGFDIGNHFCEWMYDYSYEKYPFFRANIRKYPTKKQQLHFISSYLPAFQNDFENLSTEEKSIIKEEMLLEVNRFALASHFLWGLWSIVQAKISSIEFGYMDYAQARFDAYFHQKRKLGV
T2 sequence (P35790 75-457): as above

In the case of `CN1CCCN(Cc2ccc(-c3ccc(C(=O)N4CCCN(C)CC4)cc3)c(C#N)c2)CC1` [Example 33, 4-((4-methyl-1,4-diazepan-1-yl)methyl)-4′-(4-methyl-1,4-diazepane-1-carbonyl)-[1,1′-biphenyl]-2-carbonitrile], at ChoKα protein (setting [4]), the pKd is greater than 6.70. For the same compound, the pIC50 in assay [1] (setting [5]) was greater than 6.70. Further, the GI50 with cancer cell lines (setting [6]) was greater than 20000 nM.
Take `CN1CCCN(Cc2ccc(-c3ccc(S(N)(=O)=O)cc3)c(C#N)c2)CC1` [Example 87, 2′-cyano-4′-((4-methyl-1,4-diazepan-1-yl)methyl)-[1,1′-biphenyl]-4-sulfonamide]: at ChoKα protein (setting [4]), the pKd was greater than 7.00. Further, the pIC50 in assay [1] (setting [5]) was greater than 7.00. Besides, the GI50 with cancer cell lines (setting [6]) is greater than 20000 nM.
Consider `CN1CCCN(Cc2ccc(-c3ccc(CN4CCCN(C)CC4)cc3C#N)c(F)c2)CC1` [Example 55, 2′-fluoro-4,4′-bis((4-methyl-1,4-diazepan-1-yl)methyl)-[1,1′-biphenyl]-2-carbonitrile], for which, on ChoKα protein, the pKd is greater than 7.00. For the same compound, the pIC50 in assay [2] was 6.12; in assay [1] it was greater than 6.70. In addition, in the assay with cancer cell lines (72 h), the GI50 is less than 5000 nM.
In the case of `CN1CCCN(Cc2ccc(-c3ccc(C4(NS(C)(=O)=O)CC4)cc3)c(C#N)c2)CC1` [Example 82, N-(1-(2′-cyano-4′-((4-methyl-1,4-diazepan-1-yl)methyl)-[1,1′-biphenyl]-4-yl)cyclopropyl)methanesulfonamide], the pKd on ChoKα protein (setting [4]) was greater than 7.30. For the same compound, the pIC50 in assay [1] (setting [5]) was greater than 7.00. For the same compound, the GI50 with cancer cell lines (setting [6]) is less than 20000 nM.
Take `CC(=O)NNC(=O)CCc1ccc(-c2ccc(CN3CCCN(C)CC3)cc2C#N)cc1` [Example 83, N′-acetyl-3-(2′-cyano-4′-((4-methyl-1,4-diazepan-1-yl)methyl)-[1,1′-biphenyl]-4-yl)propanehydrazide]: the pKd on ChoKα protein (setting [4]) is greater than 7.30. Moreover, the pIC50 in assay [1] (setting [5]) is greater than 7.00. The GI50 in the assay on cancer cell lines (setting [6]) was greater than 20000 nM.
As to `Cc1cc(C(=O)N2CCCN(C)CC2)ccc1-c1ccc(CN2CCCN(C)CC2)cc1` [Example 50, (4-methyl-1,4-diazepan-1-yl)(2-methyl-4′-((4-methyl-1,4-diazepan-1-yl)methyl)-[1,1′-biphenyl]-4-yl)methanone], the pKd at ChoKα protein (setting [4]) was greater than 4.22. Besides, the pIC50 in assay [1] (setting [5]) was greater than 6.70. Moreover, in the assay on cancer cell lines (setting [6]), the GI50 is less than 5000 nM.
In the case of `CN1CCCN(Cc2ccc(-c3ccc(CN4CCC(O)CC4)cc3)c(C#N)c2)CC1` [Example 4, 4′-((4-hydroxypiperidin-1-yl)methyl)-4-((4-methyl-1,4-diazepan-1-yl)methyl)-[1,1′-biphenyl]-2-carbonitrile], the pKd on ChoKα protein (setting [4]) was greater than 7.30. For the same compound, in assay [1] (setting [5]), the pIC50 is greater than 7.00. In addition, the GI50 in the assay on cancer cell lines (setting [6]) was less than 20000 nM.
On ChoKα protein, `CN1CCCN(Cc2ccc(-c3ccc(CN4CCCN(C)CC4)cc3F)cc2)CC1` [Example 44, 4,4′-((2-fluoro-[1,1′-biphenyl]-4,4′-diyl)bis(methylene))bis(1-methyl-1,4-diazepane)] gave a pKd greater than 6.70. Moreover, the pIC50 in assay [1] is greater than 6.70. In the assay on cancer cell lines (72 h), this compound gave a GI50 of less than 5000 nM.
At ChoKα protein, `CN1CCCN(Cc2ccc(-c3ccc(CN4CCCN(C)CC4)c(F)c3F)cc2)CC1` [Example 41, 4,4′-((2,3-difluoro-[1,1′-biphenyl]-4,4′-diyl)bis(methylene))bis(1-methyl-1,4-diazepane)] gave a pKd greater than 7.00. The pIC50 in assay [1] was greater than 7.00. This compound showed a GI50 with cancer cell lines (72 h) of less than 5000 nM.
Consider `CN1CCCN(Cc2ccc(-c3ccc(NS(C)(=O)=O)cc3)c(C#N)c2)CC1` [Example 104, N-(2′-cyano-4′-((4-methyl-1,4-diazepan-1-yl)methyl)-[1,1′-biphenyl]-4-yl)methanesulfonamide], for which the negative logarithm of the Kd (pKd) on ChoKα protein (setting [4]) is greater than 7.30. Further, in assay [1] (setting [5]), the pIC50 is greater than 7.00. Also, the GI50 in the assay on cancer cell lines (setting [6]) is greater than 20000 nM.
Regarding `CN1CCCN(Cc2ccc(-c3ccc(C(=O)N4CCCN(C)CC4)cc3)cc2)CC1` [Example 37, (4-methyl-1,4-diazepan-1-yl)(4′-((4-methyl-1,4-diazepan-1-yl)methyl)-[1,1′-biphenyl]-4-yl)methanone], the pKd on ChoKα protein was greater than 6.70. Moreover, the pIC50 in assay [1] is greater than 6.70. In the assay with cancer cell lines (72 h), this compound registered a GI50 greater than 20000 nM.
`CN1CCCN(Cc2ccc(-c3ccc(CN4CCCN(C)CC4)cc3C#N)c(C#N)c2)CC1` [Example 56, 4,4′-bis((4-methyl-1,4-diazepan-1-yl)methyl)-[1,1′-biphenyl]-2,2′-dicarbonitrile]: the pKd on ChoKα protein (setting [4]) was greater than 7.00. In addition, in assay [1] (setting [5]), the pIC50 is greater than 7.00. Moreover, in the assay on cancer cell lines (setting [6]), the GI50 is less than 20000 nM.
As to `CN1CCCN(Cc2ccc(-c3ccc(CN4CCCN(C)CC4)cc3)cc2)CC1` [Example 45, 4,4′-bis((4-methyl-1,4-diazepan-1-yl)methyl)-1,1′-biphenyl], the pKd on ChoKα protein is greater than 4.22. The pIC50 in assay [3] was 5.52; in assay [1], greater than 6.70. The compound also displayed a GI50 in the assay on cancer cell lines (72 h) of less than 5000 nM.
With `CN1CCCN(Cc2ccc(-c3ccc4cn[nH]c4c3)c(C#N)c2)CC1` [Example 89, 2-(1H-indazol-6-yl)-5-((4-methyl-1,4-diazepan-1-yl)methyl)benzonitrile], the pKd at ChoKα protein (setting [4]) is greater than 7.30. In assay [1] (setting [5]), the pIC50 is greater than 7.00. Besides, the concentration for 50% growth inhibition (GI50) in the assay with cancer cell lines (setting [6]) was greater than 20000 nM.

(Values after US9834521B2, “Choline kinase inhibitors” (ARIAD Pharmaceuticals, Inc., priority 2013, dated 2017).)
